This test concerns CEM cells HIV-1 protection, formazan growth assay. Briefly: NCI AIDS Antiviral Assay. The following applies: for IC50: measured here: growth of uninfected CEM cells. The method, boiled down: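 Steps: treat uninfected and HIV-1-infected human CEM cells at five drug levels; quantify growth by soluble formazan; retest any compound reaching 50% protection; classify actives from the retest.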

Calls of active or inactive are those of the source.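 The calls were made as follows: active = compounds giving half or more protection of infected cells from virus-caused growth loss, again on retest; inactive = the rest.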

For `NC(=O)CNC(=O)CCCCC1CCSS1` (stereo not given), the EC50 – broadly, the midpoint of the concentration-response curve – was 51.3 µM and the IC50 (commonly the midpoint of a concentration-inhibition curve) was above 200 µM. In the same order, the values of `CN1c2ccccc2C(=O)NC12CCN(Cc1ccccc1)CC2` are above 200 µM and 120 µM. In the same order, the values of `COc1ccc(-c2nc(-c3ccc(OC)cc3)n(-c3ccccc3)n2)cc1` are above 200 µM and 58.9 µM. In the case of `O=C(Nc1ccc(Cl)c(Cl)c1)N1c2ccccc2Sc2ccccc21`, the outcome was inactive. With `CCOc1ccc(N=C2NC(=O)C(CC(=O)Nc3ccc(Cl)cc3Cl)S2)cc1` (stereo not given), the EC50 is above 214 µM and the IC50 was above 214 µM. Turning to `CC(=O)Nc1ccc(C(=O)NN2C(=O)C(Cl)C2c2ccccc2O)cc1` (stereo not given), the EC50 is above 200 µM and the IC50 amounted to 31.6 µM. For `O=C(NCCCCN1CCCCCC1)C1c2ccccc2-c2ccccc21`, the EC50 was above 200 µM and the half-inhibitory concentration (IC50) is 91.2 µM. Taken in the same sequence, the figures for `Cc1ccc(SSc2ccc([N+](=O)[O-])cc2)cc1` were above 200 µM and 9.55 µM. In the same order, the values of `O=C(N/C(=C\c1ccccc1O)c1nc2ccccc2[nH]1)c1ccccc1` are above 51.3 µM and above 51.3 µM.

On to `COc1ccc(-c2nc3sc(-c4ccc(OC)c(OC)c4)nc3s2)cc1OC`, for which the EC50 was above 200 µM and the IC50 is above 200 µM. For `N#Cc1c(/N=C/c2ccccc2Cl)sc2c1CCC2`, the EC50 is above 200 µM and the IC50 was above 200 µM.

In the case of `CC(C)/C(Cl)=N\OC(=O)NNc1ccccc1`, the EC50 is above 20 µM and the IC50 is 5.75 µM. In the same order, the values of `CC(=O)c1c2c(cc3c1CC1(C3)Cc3ccc4c(c3C1=O)CCC4)CCC2` (stereo not given) are above 200 µM and 40.7 µM. In the same order, the values of `CC(C)(C)OP(O)(=S)OC(C)(C)C` are above 200 µM and above 200 µM. Taken in the same sequence, the figures for `Cc1nn(C(=O)Cc2ccccc2)c2c1C(c1ccccc1)SC(N)=N2` (stereo not given) were 148 µM and 195 µM. Turning to `CCOC(OCC)c1ccc(-n2c(N)c(C#N)cnc2=S)c2c1OC2=NC=C(C#N)C#N`, the EC50 was above 151 µM and the IC50 is above 151 µM. As to `Cc1ccc(C(=O)NC2CCCCC2)cc1N=NN(C)C`, the EC50 is above 46.8 µM and the IC50 worked out at 45.7 µM. Taken in the same sequence, the figures for `CC1=C2NCN(C)N=C2C(C#N)(C#N)C1(C#N)C#N` were above 200 µM and 10.5 µM. Taken in the same sequence, the figures for `CCc1c(-c2ccccc2)[nH]c(=S)c(C#N)c1C` were above 200 µM and above 200 µM. In the case of `CC12CC(C#N)(C#N)C(C#N)(CO1)C(=N)O2` (stereo not given), the EC50 was above 200 µM and the IC50 was 42.7 µM. Taken in the same sequence, the figures for `COc1ccc(-c2onc3ccc(Br)cc23)cc1` were above 23.4 µM and above 23.4 µM. For the molecule `C=CCCCCCCCCC(=O)NCC1CC1`, the EC50 is above 200 µM and the IC50 was above 200 µM.

For the molecule `Cc1[nH]c2ccccc2c1C1Cc2ccccc2N1C(=O)/C(C#N)=C/c1ccccc1` (stereo not given), the EC50 was above 12.9 µM and the IC50 came out at 2.29 µM. Taken in the same sequence, the figures for `Nc1c(Br)cc(-c2cc(Br)c(N)c(Br)c2)cc1Br` were above 200 µM and 138 µM. Taken in the same sequence, the figures for `C=CC(CCCCCCCC(=O)O)S(=O)(=O)O` (stereo not given) were above 200 µM and above 200 µM. In the same order, the values of `CC(C)NC(=O)OCCN=C1c2ccccc2C(Br)C(Br)c2ccccc21` (stereo not given) are above 200 µM and 0.575 µM. Turning to `CC(=O)OCC1OC(N2C(C)=C(C(C)=O)C(c3ccco3)C(C#N)=C2S)C(OC(C)=O)C(OC(C)=O)C1OC(C)=O` (stereo not given), the EC50 was above 200 µM and the IC50 stood at 110 µM.

Turning to `COc1cc2c(cc1OC)C1CC(=O)C3=C(CCCC3)N1CC2` (stereo not given), the EC50 is above 200 µM and the concentration for half-maximal inhibition (IC50) worked out at 91.2 µM. On to `CN(C)CC/C(=N\Nc1ccccc1)c1ccccc1`, for which the outcome was inactive. Take `CCOC(=O)C(=C(SC)SC)c1nn2c(=O)cc(C)nc2s1`: the EC50 was above 200 µM and the IC50 was found to be 17.8 µM.

With `CN1C(=O)CC2CCCN2C1=O` (stereo not given), the EC50 is above 200 µM and the half-maximal inhibitory concentration (IC50) was above 200 µM. For `COc1cc(OC)c2c(=O)c3ccccc3n3c(C(C)O)cc1c23` (stereo not given), the EC50 is above 200 µM and the IC50 is 4.79 µM. Turning to `O=S1(=O)OCCOS(=O)(=O)C1Br`, the EC50 was above 891 µM and the IC50 stood at 331 µM.

On to `CCCCN(Cc1ccccc1)C(=NC#N)N(Cc1ccccc1)Cc1ccccc1`, for which the EC50 is above 4.9 µM and the IC50 was above 4.9 µM. Turning to `CNc1ccc(Cl)cc1C(=O)N1CCC[C@H]1CO`, the EC50 is above 200 µM and the IC50 is above 200 µM. For `C/C(=N/OC(=O)N(C)C)c1cc(Cl)ccc1Cl`, the EC50 was above 200 µM and the IC50 was determined as 135 µM. As for `Cn1c2c(c3ccccc31)C1CCCCC1C1C(=O)NC(=O)C21` (stereo not given), the outcome was inactive. Turning to `NC1=NN(c2ccccc2)C(=O)C1C(=O)CCC(=O)Nc1cccc(C(F)(F)F)c1` (stereo not given), the EC50 is above 427 µM and the IC50 came out at 407 µM. In the same order, the values of `O=C1NCCCCCCCCNC(=O)c2cccc1c2` are above 13.8 µM and above 13.8 µM.

`COc1nc(N2CCNCC2)nc2c1CCCC2`: the result was inactive. With `Cc1[nH]c(=O)nc2c1C(NCCCN(C)C)c1cc(Cl)ccc1N2` (stereo not given), the EC50 is above 200 µM and the IC50 was 8.91 µM. Taken in the same sequence, the figures for `Cc1cccc(NC(=O)/C(=N\NC(C)(C)C)C2NC(=S)NC2=O)c1C` (stereo not given) were above 72.4 µM and above 72.4 µM.

On to `O=C(/C=C\c1ccccc1)Oc1ccc(/C=C2\CCCCC2=O)cc1`, for which the EC50 is above 200 µM and the IC50 was determined as 7.08 µM. Turning to `Nc1nncc2[nH]cnc12`, the EC50 was above 200 µM and the IC50 was determined as 10 µM. As to `CC(=O)OCc1ncccc1C(OC(C)=O)OC(C)=O`, the EC50 is above 891 µM and the 50% inhibitory concentration (IC50) is above 891 µM.

For the molecule `N#Cc1cc([N+](=O)[O-])ccc1NC(=O)C(F)(F)F`, the EC50 is above 100 µM and the IC50 stood at 89.1 µM. Take `NC(=Nc1nc(-c2ccccn2)cc2ccccc12)c1ccccn1`: the EC50 is above 22.4 µM and the IC50 was determined as 0.0851 µM.

In the case of `N=c1c2ccccc2sc2nc3ccccc3n12`, the EC50 was above 52.5 µM and the half-inhibitory concentration (IC50) is above 52.5 µM. Molecule `Nc1ccc(S(=O)(=O)Nc2nccs2)cc1N=Nc1ccccc1[N+](=O)[O-]` returned an EC50 above 200 µM and an IC50 above 200 µM. `Cc1ccc([P+](Cc2ccccc2)(c2ccc(C)cc2)c2ccc(C)cc2)cc1`: the EC50 was above 200 µM and the IC50 is 0.851 µM. In the same order, the values of `COc1ccc([C@@H]2CC(=O)N2)cc1` are above 200 µM and above 200 µM.

Consider `CN1N(c2ccccc2)C(=O)C2=NC=C(C(=O)c3ccc(Cl)cc3)C(=N)C21C` (stereo not given), for which the EC50 was above 200 µM and the IC50 was above 200 µM.

On to `C=CCOc1cc2c(cc1C(C)c1ccc(OC)cc1)OCO2` (stereo not given), for which the EC50 was above 32.4 µM and the IC50 came out at 0.708 µM. With `CC(C)CCS(=O)(=O)O`, the EC50 is above 200 µM and the IC50 is above 200 µM. Turning to `CC(C)(C)N=NNc1cn(C2OC(CO)C(O)C2O)c(=O)[nH]c1=O` (stereo not given), the EC50 was above 724 µM and the IC50 is above 724 µM. Consider `COc1ccc(-c2c(N)n(-c3nc4ccccc4s3)c(=O)c3cc([N+](=O)[O-])ccc23)cc1`, for which the EC50 is above 100 µM and the 50% inhibitory concentration (IC50) is 1.07 µM. Consider `COc1cc2c(cc1OC)C1CC(OC(=O)c3ccccc3)(c3nccc4cc(OC)c(OC)cc34)CCN1CC2` (stereo not given), for which the result was inactive. Consider `CCC1c2c(cc(=O)[nH]c2O)C(=O)N1Cc1ccccc1` (stereo not given), for which the EC50 is above 398 µM and the IC50 was above 398 µM. In the case of `CNS(=O)(=O)c1c(N)ncn1C`, the EC50 is above 1100 µM and the IC50 was above 1100 µM. As for `Cc1ccc(C2=Nn3c(nc4sc(C)c(C)c4c3=O)SC2)cc1`, the EC50 is above 200 µM and the IC50 was above 200 µM. For `CCOC(=O)NNC(=O)NCc1cccc(CNC(=O)NNC(=O)OCC)c1`, the EC50 is above 200 µM and the concentration for half-maximal inhibition (IC50) was above 200 µM. As for `NC(=S)N/N=C/c1cc(CN2CCOCC2)c(N)cn1`, the EC50 is above 200 µM and the half-maximal inhibitory concentration (IC50) was 10.5 µM. In the same order, the values of `CC(=O)Nc1ccc(S(=O)(=O)N/N=C/c2ccc(C)cc2)cc1` are above 398 µM and above 398 µM. For `Cc1nc2ccccc2c(=O)n1CC(=O)O`, the outcome was inactive. Turning to `O=C(CCN1CCN(c2cccc(Cl)c2)CC1)N1CCc2c([nH]c3ccccc23)C1c1cccnc1` (stereo not given), the EC50 is above 10.5 µM and the IC50 is above 10.5 µM. Regarding `COC1/C=C/OC2(C)Oc3c(C)c(O)c4c(O)c(c(/C=N/N5C(C)CN(Cc6ccc(C)cc6)CC5C)c(O)c4c3C2=O)NC(=O)C(C)=C/C=C/C(C)C(O)C(C)C(O)C(C)C(OC(C)=O)C1C` (stereo not given), the EC50 is above 200 µM and the IC50 was 3.89 µM.

In the case of `O=[N+]([O-])c1ccccc1SSc1ccccc1[N+](=O)[O-]`, the EC50 was above 12.3 µM, the outcome was inactive and the IC50 was determined as 7.41 µM. On to `CN1c2ccccc2C(=O)Nc2cnc(Cl)nc21`, for which the EC50 was above 200 µM and the IC50 was above 200 µM. For `Cc1ccc2nc(N)[nH]c(=O)c2c1Sc1ccncc1`, the EC50 was above 363 µM and the IC50 was determined as 1.35 µM. In the same order, the values of `N#Cc1ccc(Sc2ccccc2)cc1C#N` are above 110 µM and above 110 µM. Taken in the same sequence, the figures for `CC(=O)C(CCC(=O)O)(CCC(=O)O)C(C)C` were above 1020 µM and above 1020 µM. Taken in the same sequence, the figures for `CCOC(=O)c1c(N2CCOCC2)[nH]c(=O)c(C(c2ccc(N(C)C)cc2)c2c(O)c(C(=O)OCC)c(N3CCOCC3)[nH]c2=O)c1O` were above 200 µM and above 200 µM. With `C(=N\Nc1ccc2ccccc2n1)/c1ccccn1.CC(=O)[O-].CC(=O)[O-].[Zn+2]`, the EC50 is above 200 µM and the IC50 came to 1.05 µM. Taken in the same sequence, the figures for `O=C(Nc1ccc(O)cc1C(=O)O)c1ccc(O)cc1` were above 229 µM and above 229 µM. In the same order, the values of `Cc1ccc(O)c(C(c2cccc(C(c3cc(C)ccc3O)c3cc(C)ccc3O)c2)c2cc(C)ccc2O)c1` are above 20 µM and 3.31 µM.

For the origin of these results see PubChem BioAssay AID179 (DTP/NCI, 2004).
